{
  "source": "patent US12558386B2",
  "about": "“Methods and compositions to modulate antibiotic resistance and gastrointestinal microbiota” (OHIO STATE INNOVATION FOUNDATION, priority 2018, dated 2026)",
  "key": {"Three Amp^r E. coli": {"system": "Three Amp^r E. coli", "test": "MIC assessment, summary for the three strains", "assay_type": "cell-based, Escherichia coli", "conditions": "E. coli CA-1, CA-4 and CA-20 together", "procedure": "(§1) Bacterial strains. Multiple Amp^r strains from feces of broiler chickens without antibiotic treatment were recovered on Columbia blood Agar base (Becton, […] Dickinson and Company, Franklin Lakes, NJ) supplemented with 5% defibrinated sheep blood (Thermo Scientific™, Grand Island, NY). The strains were maintained in Columbia broth (Becton Dickinson and Company, Franklin Lakes, NJ), and propagated by aerobic growth at 37° C., and further subjected to strain identification and Minimum Inhibition Concentration (MIC) assessments.\n(§2) Minimum inhibition concertation (MIC) assessment. A TREK Sensititre diagnostic system (Thermo scientific, Oakwood Village, OH, USA) was used to assess the AR phenotype and MIC of isolated strains. Protocols to use this system can be found on www.trekds.com. Cation-adjusted Mueller Hinton Broth (Becton, Dickinson and Company, MD, USA) was used as basic medium."}, "E. coli CA-20": {"system": "E. coli CA-20", "test": "MIC assessment (TREK Sensititre)", "assay_type": "cell-based, Escherichia coli", "conditions": "Escherichia coli, CA20; E. coli CA-20; read-out: MIC", "procedure": "as §1, §2"}, "E. coli CA-4": {"system": "E. coli CA-4", "test": "MIC assessment (TREK Sensititre)", "assay_type": "cell-based, Escherichia coli", "conditions": "Escherichia coli, CA4; E. coli CA-4; read-out: MIC", "procedure": "as §1, §2"}, "[1]": {"system": "Lactobacillus crispatus CG-12", "test": "MIC assessment (TREK Sensititre)", "assay_type": "cell-based", "conditions": "Lactobacillus crispatus, CG12; L. crispatus CG-12; read-out: MIC", "procedure": "(§3) Multiple commensal bacterial strains from chicken feces were recovered from Columbia blood Agar base (Becton, […] Dickinson and Company, Franklin Lakes, NJ) supplemented with 5% defibrinated sheep blood (Thermo Scientific™, Grand Island, NY), and maintained in Columbia broth (Becton Dickinson and Company, Franklin Lakes, NJ) and propagated by anaerobic growth at 37° C. The strains were subjected to antibiotic susceptibility assessment followed by strain identification.\nas §2"}, "poultry gut microbiota": {"system": "poultry gut microbiota", "test": "Impact of ampicillin administration routes on poultry gut microbiota (FIG. 7)", "assay_type": "in vivo, chickens", "conditions": "Day 25", "from_the_text": "(A) NI-Saline-PO; (B) NI-Amp-IM; (C) NI-Amp-PO; (D) Amp-IM; (E) Amp-PO.\nThe impact of ampicillin administration routes and inoculation of Amp^r E. coli on poultry gut microbiota. FIG. 7A-B illustrates the impact of ampicillin application on gut microbiota of chickens. The data illustrated that without antibiotic application (FIG. 7A), Lactobacillus dominant, E. coli/Shegilla insignificant. […] The results clearly illustrated the major impact on oral ampicillin administration on poultry gut microbiota by diminishing Lactobacillus, increasing Clostridium, and massively increase […] due to Amp^r E. coli in inoculated chickens and Klebsiella in non-inoculated chickens."}, "CG-12": {"system": "CG-12", "test": "Screening of antibiotic susceptible commensal strains on antibiotic agar plates", "assay_type": "cell-based, Lactobacillus crispatus", "conditions": "16 μg/mL tetracycline, 100 μg/mL erythromycin, 32 μg/mL ampicillin, 152 μg/mL sulfamethoxazole with 8 μg/mL trimethoprim", "procedure": "as §3\nScreening of antibiotic susceptible commensal strains. Recovered commensal strain isolates (over 1000 colonies) were spotted on Columbia broth (Becton, […] Dickinson and Company, Franklin Lakes, NJ) agar plates containing each of the four antibiotics for rapid assessment of phenotypic resistance profiles. Screened antibiotics included 16 μg/mL tetracycline (Sigma-Aldrich, St. Louis, MO, USA), 100 μg/mL erythromycin (Fisher Scientific, Waltham, MA, USA), 32 μg/mL ampicillin (Sigma-Aldrich), and 152 μg/mL sulfamethoxazole (Sigma-Aldrich) with 8 μg/mL trimethoprim (Sigma-Aldrich)."}, "blaCMY-2 gene pool": {"system": "blaCMY-2 gene pool", "test": "Chicken model, qPCR of fecal DNA", "assay_type": "in vivo, Leghorn chicken", "conditions": "Lc = Lc-Amp group, Amp = Saline-Amp group", "from_the_text": "(§4) The chicken model. All procedures were approved by the Institutional Animal Care and Use Committee (protocol No. 2012A00000061, The Ohio State University, Columbus, OH). Leghorn chicken were hatched and maintained at the Ohio Agricultural Research and Development Center (OARDC) poultry research teaching farm (two birds per cage with separate feed and water supply, controlled temperature, filtered air in the room and sterilized feed). Chicken fecal samples were collected on-site and examined for the presence of blaCMY-2 gene pools and microbial profile. Beginning on Day 5 post-hatch, chicken were inoculated with a blaCMY-2^+ E. coli cocktail (0.2 mL/bird, 10^6 CFU/mL) every 24 hours for 4 consecutive days via gavage feeding using 20 ga×1.5 inch animal feeding needle (Fine Science Tools, Foster City, CA, USA). Chickens in non-inoculated control groups were fed with 0.2 mL of saline by the same method. Chickens were then set in cages for 11 days before antibiotic treatment, allowing the microbiota to stabilize.\n(§5) Lactobacillus crispatus and antibiotic administration. Lactobacillus crispatus CG-12 was susceptible to ampicillin. To monitor the impact of CG-12 on AR profiles during common ampicillin administration practice, low veterinary Amp dosages (30 mg/kg body weight per day) were selected instead of 300 mg/kg/day. Lactobacillus crispatus CG-12 was administrated in three periods: 1) Day 2 to Day 4 post-hatch; 2) throughout the stabilization; and 3) post-antibiotic challenge on Day 25 to Day 28. During these periods, chickens were inoculated with a Lactobacillus crispatus CG-12 suspension (0.2 mL/bird, 10^6 CFU/mL) every 24 hours for 4 consecutive days via gavage feeding using 20 ga×1.5 inch animal feeding needle (Fine Science Tools, Foster City, CA, USA). Each group contained at least 6 chickens.\n(§6) Sample collection. Fresh feces were collected from each chicken on-site in the rearing facility. Fecal samples were collected at the 1st and last day of Lactobacillus inoculation, once a day during the antibiotic administration period, and once every three days during antibiotic withdrawal period up to 14 days from initial antibiotic exposure.\n(§7) DNA extraction. Total DNA from chicken fecal samples for real-time quantitative PCR (qPCR) and denaturing gradient gel electrophoresis (DGGE) analyses were extracted according to a published method (Yu and Morrison 2004).\n(§8) Real-time quantitative PCR. TaqMan real-time PCR protocol was used to assess blaCMY-2 and 16S rRNA gene pools in total DNA extracted from chicken fecal samples, as described previously (Zhang et al., 2013). […] Each sample was assessed and analyzed in duplicates on a CFX96 system (Bio-Rad, Hercules, CA, USA)."}, "16S rRNA gene pool": {"system": "16S rRNA gene pool", "test": "Chicken model, qPCR of fecal DNA", "assay_type": "in vivo, Leghorn chicken", "conditions": "Lc = Lc-Amp group, Amp = Saline-Amp group", "from_the_text": "as §4, §5, §6, §7, §8"}, "[2]": {"conditions": "Day 21, during oral Amp 30 mg/kg/day"}},
  "data": [
    {"smiles": "CC1(C)S[C@@H]2[C@H](NC(=O)[C@H](N)c3ccccc3)C(=O)N2[C@H]1C(=O)O", "note": "[AMP, ampicillin]", "values": [
      {"measurement": "resistance phenotype from MIC, in words", "setting": "Three Amp^r E. coli", "result": "high resistance"},
      {"measurement": "MIC", "setting": "E. coli CA-20", "result": "> 16", "unit": "µg/mL"},
      {"measurement": "MIC", "setting": "E. coli CA-4", "result": "> 16", "unit": "µg/mL"},
      {"measurement": "MIC", "setting": "[1]", "result": 0.5, "unit": "µg/mL"},
      {"measurement": "change of gut microbiota", "setting": "poultry gut microbiota; muscle injection, inoculated with E. coli cocktail (FIG. 7D)", "result": "Firmicutes still dominant but with which Lactobacillus drastically reduced"},
      {"measurement": "change of gut microbiota", "setting": "poultry gut microbiota; muscle injection, without inoculation of E. coli cocktail (FIG. 7B)", "result": "minimal changes"},
      {"measurement": "change of gut microbiota", "setting": "poultry gut microbiota; oral feeding, inoculated with E. coli cocktail (FIG. 7E)", "result": "Firmicutes changed from dominant to minority"},
      {"measurement": "change of gut microbiota", "setting": "poultry gut microbiota; oral, without inoculation of E. coli cocktail (FIG. 7C)", "result": "decrease of Firmicutes (still dominant) and significant increase of Proteobacteria"},
      {"measurement": "phenotypic susceptibility on antibiotic agar plates", "setting": "CG-12", "result": "susceptible"},
      {"measurement": "blaCMY-2 gene pool", "setting": "blaCMY-2 gene pool; [2]", "result": "8.7±0.8 log10 (gene copies/g)"},
      {"measurement": "blaCMY-2 gene pool", "setting": "blaCMY-2 gene pool; Day 25, after Amp treatment", "result": "9.8±0.9 log10 (gene copies/g)"},
      {"measurement": "16S rRNA gene pool", "setting": "16S rRNA gene pool; [2]", "result": "8.5±0.7 log10 (gene copies/g)"},
      {"measurement": "16S rRNA gene pool", "setting": "16S rRNA gene pool; Day 25, after Amp treatment", "result": "10.5±1.0 log10 (gene copies/g)"}
    ]}
  ]
}
